Where a name gives a salt, the structure may show the parent alone. A value given as a limit tells only on which side of the number the result lay.

For experiment [1], the system named is Phosphorylated Ribosomal Protein S6 (RPS6) in THP-1 cells. Description: THP-1 RPS6 ELISA Assay. Type of experiment: cell-based. The settings on record: Homo sapiens, 2 hours with compound, 10 nM MCP-1 for 15 minutes, read-out: THP p-RPS6 ELISA IC50. As to the method:
To measure the Phosphorylated Ribosomal Protein S6 (RPS6) in cell lysates, THP-1 cells (Human Acute Monocytic Leukemia) are purchased from ATCC (Manassas, Va.) and maintained in RPMI with 10% FBS (Gibco/Life Technologies, Carlsbad, Calif.). For the assay, THP-1 cells are serum starved overnight in RPMI, then plated in RPMI (2×10^5 cells/well in 90 μL) into 96-well flat-bottom tissue culture treated plates (Corning, Corning, N.Y.), in the presence or absence of a concentration range of test compounds. Covered plates are incubated for 2 hours at 37° C., 5% CO2 then treated with or without 10 nM MCP-1 (MYBioSource, San Diego, Calif.) for 15 minutes at 37° C., 5% CO2. Plates are centrifuged at 1600 RPM and supernatants are removed. Cells are lysed in Lysis Buffer (Cell Signaling, Danvers, Mass.) with Protease Inhibitor (Calbiochem/EMD, Germany), PMSF (Sigma, St. Louis, Mo.), HALTS (Thermo Fisher, Rockford, Ill.) for 30 min on wet ice. Cell lysates are frozen at −80° C. before testing. The lysates are tested in the Human/Mouse/Rat Phospho-RPS6 ELISA (R&D Systems, Inc. Minn, Minn.). The plate is measured using a microplate reader (SpectraMax M5—Molecular Devices, LLC Sunnyvale, Calif.) set to 450 nm with a wavelength correction of 540. IC50 determination is performed by fitting the curve of inhibitor percent inhibition versus the log of the inhibitor concentration using the GraphPad Prism 5.0 software.
Background: ELISA stands for enzyme-linked immunosorbent assay.

Experiment [2] concerns the target PI3Kδ (p110δ/p85α) Recombinant Human Protein (Homo sapiens (Human), UniProt O00329). Kind of experiment: PI3Kδ Scintillation Proximity Assay. Format: biochemical. The settings on record: 20 μM PIP2, 2 μM ATP, 3.4 nM PI3Kδ, 120 min; read-out: PI3K-delta SPA IC50. An excerpt:
[γ-^33P]ATP (10 mCi/mL) and Wheat Germ Agglutinin (WGA) YSi SPA Scintillation Beads was purchased from Perkin-Elmer (Waltham, Mass.). Lipid kinase substrate, D-myo-Phosphatidylinositol 4,5-bisphosphate (PtdIns(4,5)P2)D (+)-sn-1,2-di-O-octanoylglyceryl, 3-O-phospho linked (PIP2), CAS 204858-53-7, was purchased from Echelon Biosciences (Salt Lake City, Utah). PI3Kδ (p110δ/p85α) Recombinant Human Protein was purchased from Eurofins (St. Charles, Mo.). ATP, MgCl2, DTT, EDTA, MOPS and CHAPS were purchased from Sigma-Aldrich (St. Louis, Mo.).
The kinase reaction was conducted in polystyrene 384-well Greiner Bio-one white plate from Thermo Fisher Scientific in a final volume of 25 μL. Inhibitors were first diluted serially in DMSO and added to the plate wells before the addition of other reaction components. The final concentration of DMSO in the assay was 2%. The PI3Kδ assay was carried out at room temperature in 20 mM MOPS, pH 6.7, 10 mM MgCl2, 5 mM DTT and CHAPS 0.03%. Reactions were initiated by the addition of ATP, the final reaction mixture consisted of 20 μM PIP2, 2 μM ATP, 0.5 μCi [γ-^33P] ATP, 3.4 nM PI3Kδ. […] After the plate sealing, plates were shaken overnight at room temperature and centrifuged at 1500 rpm for 10 min, the radioactivity of the product was determined by scintillation counting on Topcount (Perkin-Elmer). […]
For orientation: SPA uses beads or plates that emit light when radiolabelled molecules are held near them.

Sequence of PI3Kδ (p110δ/p85α) Recombinant Human Protein (O00329 whole entry): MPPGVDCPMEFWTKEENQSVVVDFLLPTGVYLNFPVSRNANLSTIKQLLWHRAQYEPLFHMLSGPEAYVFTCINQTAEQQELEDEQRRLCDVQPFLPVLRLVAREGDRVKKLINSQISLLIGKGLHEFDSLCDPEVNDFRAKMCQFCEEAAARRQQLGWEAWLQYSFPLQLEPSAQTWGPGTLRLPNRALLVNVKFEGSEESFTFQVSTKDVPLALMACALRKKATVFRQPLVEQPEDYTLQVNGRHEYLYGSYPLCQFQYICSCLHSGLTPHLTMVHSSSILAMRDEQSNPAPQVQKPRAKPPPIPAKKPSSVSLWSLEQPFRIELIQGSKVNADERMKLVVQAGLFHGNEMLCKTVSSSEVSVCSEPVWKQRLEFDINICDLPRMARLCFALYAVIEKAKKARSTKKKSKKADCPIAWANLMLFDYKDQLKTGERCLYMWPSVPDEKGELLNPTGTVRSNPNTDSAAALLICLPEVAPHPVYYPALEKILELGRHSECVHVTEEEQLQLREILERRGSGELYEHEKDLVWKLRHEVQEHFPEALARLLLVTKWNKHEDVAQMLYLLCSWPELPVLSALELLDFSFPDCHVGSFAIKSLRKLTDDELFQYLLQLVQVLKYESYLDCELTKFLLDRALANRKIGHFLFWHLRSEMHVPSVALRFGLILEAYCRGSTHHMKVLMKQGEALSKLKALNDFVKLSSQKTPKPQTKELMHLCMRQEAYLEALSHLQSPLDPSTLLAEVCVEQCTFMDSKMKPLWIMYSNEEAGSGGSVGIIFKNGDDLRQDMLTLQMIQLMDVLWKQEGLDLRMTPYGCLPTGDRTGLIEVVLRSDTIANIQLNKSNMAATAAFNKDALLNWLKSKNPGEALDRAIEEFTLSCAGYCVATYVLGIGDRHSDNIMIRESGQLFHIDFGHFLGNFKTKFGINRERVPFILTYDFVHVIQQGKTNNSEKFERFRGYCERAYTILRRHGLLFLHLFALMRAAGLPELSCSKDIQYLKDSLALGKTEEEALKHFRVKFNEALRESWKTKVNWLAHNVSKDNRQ
Sequence of PI3Kδ (p110δ/p85α) Recombinant Human Protein (P27986 whole entry partner): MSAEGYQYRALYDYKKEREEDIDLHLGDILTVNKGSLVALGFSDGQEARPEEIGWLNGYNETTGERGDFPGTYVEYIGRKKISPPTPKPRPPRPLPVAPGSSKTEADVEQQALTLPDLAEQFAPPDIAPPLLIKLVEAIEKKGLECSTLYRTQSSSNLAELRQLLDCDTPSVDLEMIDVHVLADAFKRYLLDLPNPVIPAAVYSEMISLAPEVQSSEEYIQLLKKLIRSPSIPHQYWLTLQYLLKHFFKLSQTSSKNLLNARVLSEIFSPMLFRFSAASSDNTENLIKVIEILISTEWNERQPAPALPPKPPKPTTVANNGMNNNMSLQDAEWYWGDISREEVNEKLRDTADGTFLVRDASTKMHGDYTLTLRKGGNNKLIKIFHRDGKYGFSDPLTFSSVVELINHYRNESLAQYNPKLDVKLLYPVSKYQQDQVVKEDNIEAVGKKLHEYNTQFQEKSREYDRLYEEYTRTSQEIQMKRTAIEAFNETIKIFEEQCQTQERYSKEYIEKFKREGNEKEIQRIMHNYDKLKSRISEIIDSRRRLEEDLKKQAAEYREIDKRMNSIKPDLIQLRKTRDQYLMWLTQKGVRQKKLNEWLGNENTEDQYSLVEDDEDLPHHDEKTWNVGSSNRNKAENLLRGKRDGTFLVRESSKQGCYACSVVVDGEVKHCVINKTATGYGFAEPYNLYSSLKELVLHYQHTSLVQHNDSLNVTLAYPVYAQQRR

As for `CCS(=O)(=O)Nc1cncc(-c2ccc3nc(-c4nc5ccccc5[nH]4)oc3c2)c1` [Example 18, N-(5-(2-(1H-Benzo[d]imidazol-2-yl)benzo[d]oxazol-6-yl)pyridin-3-yl)ethanesulfonamide], the IC50 is no less than 5 µM in experiment [1] and less than 1000 nM in experiment [2].

With `CCS(=O)(=O)Nc1cc(-c2ccc3nc(-c4nc(C)c(C)[nH]4)oc3c2)cnc1OC` [Example 65, N-(5-(2-(4,5-Dimethyl-1H-imidazol-2-yl)benzo[d]oxazol-6-yl)-2-methoxypyridin-3-yl)ethanesulfonamide bis(trifluoroacetate)], the IC50 in experiment [1] was less than 1 µM. In the case of `Cc1ncc(-c2ccc3nc(-c4nc5ccccc5[nH]4)oc3c2)cc1NS(=O)(=O)CC(F)(F)F` [Example 76, N-(5-(2-(1H-Benzo[d]imidazol-2-yl)benzo[d]oxazol-6-yl)-2-methylpyridin-3-yl)-2,2,2-trifluoroethanesulfonamide bis(trifluoroacetate)], the IC50 in experiment [1] is less than 1 µM. On the same count and under the same terms, as for `COc1cncc(-c2ccc3nc(-c4nc5ccccc5[nH]4)oc3c2)c1` [Example 4, 2-(1H-Benzo[d]imidazol-2-yl)-6-(5-methoxypyridin-3-yl)benzo[d]oxazole trifluoroacetate], the figure is less than 5 µM; as for `N#Cc1cncc(-c2ccc3nc(-c4nc5ccccc5[nH]4)oc3c2)c1` [Example 35, 5-(2-(1H-Benzo[d]imidazol-2-yl)benzo[d]oxazol-6-yl)nicotinonitrile], less than 5 µM.

On to `CCS(=O)(=O)Nc1cc(-c2ccc3nc(-c4nc5ccccc5[nH]4)oc3c2)cnc1OC` [Example 79, N-(5-(2-(1H-Benzo[d]imidazol-2-yl)benzo[d]oxazol-6-yl)-2-methoxypyridin-3-yl)ethanesulfonamide bis(trifluoroacetate)], for which the IC50 in experiment [1] is less than 1 µM. As to `O=S(=O)(Nc1cncc(-c2ccc3nc(-c4nc5ccccc5[nH]4)oc3c2)c1)c1cccc(F)c1` [Example 19, N-(5-(2-(1H-Benzo[d]imidazol-2-yl)benzo[d]oxazol-6-yl)pyridin-3-yl)-3-fluorobenzene-sulfonamide], in experiment [1], the IC50 is less than 5 µM. On the same count and under the same terms, as for `CC(C)S(=O)(=O)Nc1cncc(-c2ccc3nc(-c4nc5ccccc5[nH]4)oc3c2)c1` [Example 24, N-(5-(2-(1H-Benzo[d]imidazol-2-yl)benzo[d]oxazol-6-yl)pyridin-3-yl)propane-2-sulfonamide], the figure is no less than 5 µM. Regarding `CN(C)S(=O)(=O)Nc1cncc(-c2ccc3nc(-c4nc5ccccc5[nH]4)oc3c2)c1` [Example 21, N′-{5-[2-(1H-Benzimidazol-2-yl)-1,3-benzoxazol-6-yl]-pyridin-3-yl}-N,N-dimethylsulfamide], in experiment [1], the IC50 was less than 1 µM. On the same count and under the same terms, as for `Cc1ncc(-c2ccc3nc(-c4nc5ccccc5[nH]4)oc3c2)cc1NS(=O)(=O)N(C)C` [Example 22, N′-{5-[2-(1H-Benzimidazol-2-yl)-1,3-benzoxazol-6-yl]-2-methylpyridin-3-yl}-N,N-dimethylsulfamide], the figure is less than 1 µM; as for `OC(c1cncc(-c2ccc3nc(-c4nc5ccccc5[nH]4)oc3c2)c1)C(F)(F)F` (stereo not drawn) [Example 74, 1-(5-(2-(1H-Benzo[d]imidazol-2-yl)benzo[d]oxazol-6-yl)pyridin-3-yl)-2,2,2-trifluoroethanol bis(trifluoroacetate)], no less than 5 µM; as for `CP(C)(=O)c1cncc(-c2ccc3nc(-c4nc5ccccc5[nH]4)oc3c2)c1` [Example 72, 2-(1H-Benzo[d]imidazol-2-yl)-6-(5-(dimethylphosphoryl)pyridin-3-yl)benzo[d]oxazole bis(trifluoroacetate)], no less than 5 µM. On to `CC(C)Oc1cncc(-c2ccc3nc(-c4nc5ccccc5[nH]4)oc3c2)c1` [Example 15, 2-(1H-Benzo[d]imidazol-2-yl)-6-(5-isopropoxypyridin-3-yl)benzo[d]oxazole], for which the IC50 in experiment [1] is less than 5 µM. In the case of `CCS(=O)(=O)Nc1cc(-c2ccc3nc(-c4nc5ccccc5[nH]4)oc3c2)cnc1F` [Example 27, N-(5-(2-(1H-Benzo[d]imidazol-2-yl)benzo[d]oxazol-6-yl)-2-fluoropyridin-3-yl)ethanesulfonamide], the IC50 in experiment [1] was less than 1 µM.

As for `O=S(=O)(CC(F)(F)F)Nc1cc(-c2ccc3nc(-c4nc5ccccc5[nH]4)oc3c2)cnc1F` [Example 75, N-(5-(2-(1H-Benzo[d]imidazol-2-yl)benzo[d]oxazol-6-yl)-2-fluoropyridin-3-yl)-2,2,2-trifluoroethanesulfonamide bis(trifluoroacetate)], the IC50 in experiment [1] was less than 1 µM. Same read-out and setting: as for `OC(c1cncc(-c2ccc3nc(-c4nc5c([nH]4)CCCC5)oc3c2)c1)C(F)(F)F` (stereo not drawn) [Example 68, 2,2,2-Trifluoro-1-(5-(2-(4,5,6,7-tetrahydro-1H-benzo[d]imidazol-2-yl)benzo[d]oxazol-6-yl)pyridin-3-yl)ethanol], the figure is less than 5 µM; as for `O=S(=O)(c1cncc(-c2ccc3nc(-c4nc5ccccc5[nH]4)oc3c2)c1)N1CCC(O)C1` (stereo not drawn) [Example 58, 1-({5-[2-(1H-Benzimidazol-2-yl)-1,3-benzoxazol-6-yl]pyridin-3-yl}sulfonyl)pyrrolidin-3-ol bis(trifluoroacetate)], no less than 5 µM.

The values are drawn from patent publication US10022387B2, “Aza-heteroaryl compounds as PI3K-gamma inhibitors” (Incyte Corporation, priority 2015, dated 2018).
